# Experiments:
# [1] = system: Hepatitis B virus; assay: Antiviral activity against Hepatitis B virus infected in human HepG2 cells expressing NTCP assessed as inhibition of viral entry by measuring intracellular HBV DNA at 1 uM preincubated with compound for 2 hrs followed by viral infection and measured after 3 hrs by qPCR analysis relative to control; assay type: functional; details: time 5 hrs
# [2] = system: Hepatitis B virus; assay: Antiviral activity against Hepatitis B virus infected in human HepG2 cells expressing NTCP assessed as inhibition of viral entry by measuring intracellular HBV DNA preincubated with compound for 2 hrs followed by viral infection and measured after 3 hrs by qPCR analysis; assay type: functional, organism-based
# [3] = Cytotoxicity against human HepG2 cells assessed as reduction in cell viability incubated for 24 hrs by MTS assay; assay type: toxicity, cell-based; details: read-out: LC50
# [4] = biological target: T1, hERG (KCNH2) (Homo sapiens, UniProt Q12809); assay: Inhibition of hERG incubated for 2 hrs by fluorescence polarization based assay; assay type: toxicity
# T1 sequence (Q12809 whole entry): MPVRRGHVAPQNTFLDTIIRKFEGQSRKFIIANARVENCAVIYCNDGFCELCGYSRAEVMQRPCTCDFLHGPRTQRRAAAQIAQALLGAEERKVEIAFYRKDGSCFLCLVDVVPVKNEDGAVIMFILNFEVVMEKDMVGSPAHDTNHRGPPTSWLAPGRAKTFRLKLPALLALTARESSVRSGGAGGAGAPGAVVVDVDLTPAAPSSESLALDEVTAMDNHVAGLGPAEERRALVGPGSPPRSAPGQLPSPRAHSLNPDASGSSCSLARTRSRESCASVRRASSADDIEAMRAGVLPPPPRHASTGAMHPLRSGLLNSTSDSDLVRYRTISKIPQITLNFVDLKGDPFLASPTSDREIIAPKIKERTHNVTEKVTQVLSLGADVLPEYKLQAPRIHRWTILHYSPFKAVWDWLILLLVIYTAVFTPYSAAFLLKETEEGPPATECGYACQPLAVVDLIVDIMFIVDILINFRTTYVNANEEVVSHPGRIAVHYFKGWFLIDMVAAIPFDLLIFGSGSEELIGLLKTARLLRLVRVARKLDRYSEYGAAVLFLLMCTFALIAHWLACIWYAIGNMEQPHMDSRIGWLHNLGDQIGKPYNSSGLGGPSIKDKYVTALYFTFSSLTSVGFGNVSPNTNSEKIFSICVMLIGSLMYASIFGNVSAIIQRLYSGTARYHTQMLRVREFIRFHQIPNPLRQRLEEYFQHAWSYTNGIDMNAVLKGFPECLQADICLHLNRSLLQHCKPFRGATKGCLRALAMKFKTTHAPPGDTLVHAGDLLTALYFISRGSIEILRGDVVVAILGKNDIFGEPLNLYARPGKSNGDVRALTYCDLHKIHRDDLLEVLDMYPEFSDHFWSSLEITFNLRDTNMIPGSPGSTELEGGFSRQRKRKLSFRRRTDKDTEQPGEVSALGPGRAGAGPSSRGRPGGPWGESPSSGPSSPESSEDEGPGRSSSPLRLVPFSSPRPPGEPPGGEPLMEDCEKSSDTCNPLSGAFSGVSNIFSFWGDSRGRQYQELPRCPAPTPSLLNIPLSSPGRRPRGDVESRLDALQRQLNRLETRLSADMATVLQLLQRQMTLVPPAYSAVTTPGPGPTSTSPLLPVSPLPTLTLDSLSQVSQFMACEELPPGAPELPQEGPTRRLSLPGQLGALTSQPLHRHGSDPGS
# [5] = biological target: T2, CYP1A2 (Homo sapiens, UniProt P05177); assay: Inhibition of human CYP1A2 at 10 uM preincubated for 10 mins followed by NADPH addition and measured after 20 mins by luciferin reagent based luminescence analysis; assay type: ADME; details: time 30 min
# T2 sequence (P05177 whole entry): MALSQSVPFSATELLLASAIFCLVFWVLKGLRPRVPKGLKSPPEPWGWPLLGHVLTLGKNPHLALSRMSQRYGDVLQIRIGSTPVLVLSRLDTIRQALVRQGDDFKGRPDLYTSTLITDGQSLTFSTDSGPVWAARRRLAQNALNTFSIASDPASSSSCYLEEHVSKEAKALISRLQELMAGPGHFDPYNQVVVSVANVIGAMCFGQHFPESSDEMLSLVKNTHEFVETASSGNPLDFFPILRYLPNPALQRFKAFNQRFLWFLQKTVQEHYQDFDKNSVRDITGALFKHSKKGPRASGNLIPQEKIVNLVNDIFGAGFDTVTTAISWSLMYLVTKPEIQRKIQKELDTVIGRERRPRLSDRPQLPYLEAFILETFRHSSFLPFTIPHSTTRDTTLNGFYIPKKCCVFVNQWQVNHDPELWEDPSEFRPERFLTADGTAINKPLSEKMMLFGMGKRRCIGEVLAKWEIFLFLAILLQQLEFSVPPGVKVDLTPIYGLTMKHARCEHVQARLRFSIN
# [6] = biological target: CYP2C9 (Homo sapiens, UniProt P11712); assay: Inhibition of human CYP2C9 at 10 uM preincubated for 10 mins followed by NADPH addition and measured after 20 mins by luciferin reagent based luminescence analysis; assay type: ADME; details: time 30 min
# Chain of CYP2C9 (P11712 whole entry): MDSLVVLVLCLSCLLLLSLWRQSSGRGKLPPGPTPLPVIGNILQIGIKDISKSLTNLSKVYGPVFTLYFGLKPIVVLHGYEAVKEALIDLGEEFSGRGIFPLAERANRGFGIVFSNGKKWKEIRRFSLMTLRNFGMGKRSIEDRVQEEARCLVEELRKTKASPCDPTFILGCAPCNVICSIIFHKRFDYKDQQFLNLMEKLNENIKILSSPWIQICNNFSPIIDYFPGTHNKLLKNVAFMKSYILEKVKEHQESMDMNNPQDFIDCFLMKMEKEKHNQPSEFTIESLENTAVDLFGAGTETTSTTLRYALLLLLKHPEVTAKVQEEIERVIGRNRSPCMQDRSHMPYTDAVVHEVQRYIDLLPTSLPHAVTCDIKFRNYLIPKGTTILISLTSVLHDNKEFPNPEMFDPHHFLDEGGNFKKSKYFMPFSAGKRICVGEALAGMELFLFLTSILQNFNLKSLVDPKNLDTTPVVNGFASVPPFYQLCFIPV
# [7] = biological target: CYP2C19 (Homo sapiens, UniProt P33261); assay: Inhibition of human CYP2C19 at 10 uM preincubated for 10 mins followed by NADPH addition and measured after 20 mins by luciferin reagent based luminescence analysis; assay type: ADME; details: time 30 min
# Chain of CYP2C19 (P33261 whole entry): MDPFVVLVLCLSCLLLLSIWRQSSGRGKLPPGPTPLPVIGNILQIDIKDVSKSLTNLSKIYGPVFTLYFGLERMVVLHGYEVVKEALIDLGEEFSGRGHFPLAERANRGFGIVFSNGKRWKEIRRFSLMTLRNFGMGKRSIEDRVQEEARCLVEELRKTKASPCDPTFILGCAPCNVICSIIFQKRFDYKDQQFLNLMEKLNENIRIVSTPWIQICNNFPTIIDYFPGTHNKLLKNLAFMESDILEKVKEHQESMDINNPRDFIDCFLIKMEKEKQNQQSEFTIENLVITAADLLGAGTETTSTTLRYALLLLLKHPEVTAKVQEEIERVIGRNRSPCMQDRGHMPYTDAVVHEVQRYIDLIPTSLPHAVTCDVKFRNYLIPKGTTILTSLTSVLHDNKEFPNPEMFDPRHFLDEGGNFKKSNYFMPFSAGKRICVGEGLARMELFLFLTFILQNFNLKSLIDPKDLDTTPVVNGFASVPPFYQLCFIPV
# [8] = biological target: CYP2D6 (Homo sapiens, UniProt P10635); assay: Inhibition of human CYP2D6 at 10 uM preincubated for 10 mins followed by NADPH addition and measured after 20 mins by luciferin reagent based luminescence analysis; assay type: ADME; details: time 30 min
# Chain of CYP2D6 (P10635 whole entry): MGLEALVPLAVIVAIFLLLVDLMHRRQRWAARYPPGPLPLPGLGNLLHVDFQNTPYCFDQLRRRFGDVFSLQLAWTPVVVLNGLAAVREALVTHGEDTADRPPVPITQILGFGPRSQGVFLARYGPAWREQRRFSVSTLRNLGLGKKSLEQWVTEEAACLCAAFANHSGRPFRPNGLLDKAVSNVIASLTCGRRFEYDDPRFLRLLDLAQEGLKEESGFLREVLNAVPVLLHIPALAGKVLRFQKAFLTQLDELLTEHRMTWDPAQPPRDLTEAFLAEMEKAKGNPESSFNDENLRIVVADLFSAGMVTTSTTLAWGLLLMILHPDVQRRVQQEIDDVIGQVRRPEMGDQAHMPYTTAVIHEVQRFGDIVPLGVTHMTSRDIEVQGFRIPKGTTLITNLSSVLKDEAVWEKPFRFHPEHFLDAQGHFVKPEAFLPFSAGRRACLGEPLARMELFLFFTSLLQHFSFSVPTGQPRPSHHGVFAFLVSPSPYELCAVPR
# [9] = biological target: CYP3A4 (Homo sapiens, UniProt P08684); assay: Inhibition of human CYP3A4 at 10 uM preincubated for 10 mins followed by NADPH addition and measured after 20 mins by luciferin reagent based luminescence analysis; assay type: ADME; details: time 30 min
# Chain of CYP3A4 (P08684 whole entry): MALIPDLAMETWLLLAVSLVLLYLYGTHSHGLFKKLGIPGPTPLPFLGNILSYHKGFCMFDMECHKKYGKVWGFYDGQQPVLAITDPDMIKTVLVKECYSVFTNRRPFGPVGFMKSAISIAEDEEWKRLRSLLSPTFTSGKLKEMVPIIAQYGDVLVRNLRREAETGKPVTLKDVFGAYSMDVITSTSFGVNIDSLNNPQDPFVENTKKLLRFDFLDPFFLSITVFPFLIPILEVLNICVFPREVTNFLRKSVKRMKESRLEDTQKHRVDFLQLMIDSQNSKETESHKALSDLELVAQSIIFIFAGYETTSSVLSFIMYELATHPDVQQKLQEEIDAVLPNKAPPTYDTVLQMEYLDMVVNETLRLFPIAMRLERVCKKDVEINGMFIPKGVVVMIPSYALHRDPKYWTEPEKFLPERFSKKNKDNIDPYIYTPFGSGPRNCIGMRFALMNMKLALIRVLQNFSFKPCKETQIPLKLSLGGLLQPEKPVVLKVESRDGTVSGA
# [10] = biological target: T1, hERG (KCNH2); assay: in vitro
# Description: Inhibition of hERG at 10 uM incubated for 2 hrs by fluorescence polarization based assay relative to control
compound,measurement,setting,value
CCC[C@@H]1NC(=O)[C@H](CC(C)C)N(C)C(=O)[C@H](CC(C)C)N(C)C(=O)CN(CCO)C(=O)[C@H](CC(C)C)N(C)C(=O)[C@@H](C)NC(=O)[C@@H](CCC(N)=O)NC(=O)[C@H](CC(C)C)N(C)C(=O)[C@H](C(C)C)NC(=O)[C@H](CC(C)C)N(C)C(=O)CN(C)C1=O,inhibition at 1 µM,[1],78%
same,IC50,[2],0.36 µM
same,CC50 at 24 h,[3],> 200 µM
same,EC50 at 2 h,[4],> 10 µM
same,"inhibition at 20 min, 10 µM",[5],8.4%
same,"inhibition at 20 min, 10 µM",[6],14.8%
same,"inhibition at 20 min, 10 µM",[7],29.4%
same,"inhibition at 20 min, 10 µM",[8],35.1%
same,"inhibition at 20 min, 10 µM",[9],35.5%
same,"inhibition at 2 h, 10 µM",[10],19.1%

# — ChEMBL document CHEMBL5126594, “Entry inhibition of hepatitis B virus using cyclosporin O derivatives with peptoid side chain incorporation” (Bioorg Med Chem, 2022)
